# Reference: US20150025118A1, “ACTIVE COMPOUND COMPOSITIONS FOR VECTOR CONTROL OF INSECTICIDE-RESISTANT PESTS” (priority 2012, published 2015)
# Key:
# [1] = system: Anopheles gambiae (target-site-resistant and metabolic-resistant strain: RSPH); assay: Target-site-resistant and metabolic-resistant Anopheles test: treated glazed tile, knock-down; type: in vivo
# Experimental: (§1) The exposition time is 30 minutes.
# (§2) 0.25 hours, 0.5 hours, 1 hour, 2 hour, 3 hour, 4 hour and 24 hours after contact to the treated surface, the knock-down proportion of the test animals in % is determined. Here, 100% means that all mosquitoes have been killed; 0% means that none of the mosquitoes has been killed.
# mosquitoes = conditions: alone, on concrete (alkaline); stated as known; cited from earlier work
# Aedes aegypti = assay: Aedes test: contact on treated glazed tile, knock-down; type: in vivo
# Experimental: To produce a suitable preparation of active compound combination the active compounds bendiocarb and clothianidin were dissolved in acetone (for the control group only one active compound was dissolved in acetone). The active compound combination preparation (and the active compound preparations) were pipetted onto a glazed tile and, after drying, adult mosquitoes of the species Aedes aegypti are placed onto the treated tile. The exposition time is 30 minutes.
# as §2
# [2] = system: Anopheles funestus metabolic-resistant strain FUMOZ-R; assay: Metabolic-resistant Anopheles test: treated glazed tile, knock-down; type: in vivo
# Experimental: as §1, §2
# [3] = Bendiocarb 0.032 mg/m^2 alone, 0.25 h after contact
# [4] = Bendiocarb 0.032 mg/m^2 alone, 0.5 h after contact
# [5] = Bendiocarb 0.032 mg/m^2 alone, 1 h after contact
# [6] = Bendiocarb 0.032 mg/m^2 alone, 2 h after contact
# [7] = Bendiocarb 0.032 mg/m^2 alone, 3 h after contact
# [8] = Bendiocarb 0.032 mg/m^2 alone, 4 h after contact
# [9] = Bendiocarb 0.032 mg/m^2 alone, 24 h after contact
# [10] = Bendiocarb 0.16 mg/m^2 alone, 0.25 h after contact
# [11] = Bendiocarb 0.16 mg/m^2 alone, 0.5 h after contact
# [12] = Bendiocarb 0.16 mg/m^2 alone, 1 h after contact
# [13] = Bendiocarb 0.16 mg/m^2 alone, 2 h after contact
# [14] = Bendiocarb 0.16 mg/m^2 alone, 3 h after contact
# [15] = Bendiocarb 0.16 mg/m^2 alone, 4 h after contact
# [16] = Bendiocarb 0.16 mg/m^2 alone, 24 h after contact
# [17] = Dinotefuran 0.8 mg/m^2 alone, 0.25 h after contact
# [18] = Dinotefuran 0.8 mg/m^2 alone, 0.5 h after contact
# [19] = Dinotefuran 0.8 mg/m^2 alone, 1 h after contact
# [20] = Dinotefuran 0.8 mg/m^2 alone, 2 h after contact
# [21] = Dinotefuran 0.8 mg/m^2 alone, 3 h after contact
# [22] = Dinotefuran 0.8 mg/m^2 alone, 4 h after contact
# [23] = Dinotefuran 0.8 mg/m^2 alone, 24 h after contact
# [24] = Dinotefuran 4 mg/m^2 alone, 0.25 h after contact
# [25] = Dinotefuran 4 mg/m^2 alone, 0.5 h after contact
# [26] = Dinotefuran 4 mg/m^2 alone, 1 h after contact
# [27] = Dinotefuran 4 mg/m^2 alone, 2 h after contact
# [28] = Dinotefuran 4 mg/m^2 alone, 3 h after contact
# [29] = Dinotefuran 4 mg/m^2 alone, 4 h after contact
# [30] = Dinotefuran 4 mg/m^2 alone, 24 h after contact
compound,measurement,setting,value
"CNC(=O)Oc1cccc2c1OC(C)(C)O2 [Bendiocarb, bendiocarb]",Effect % (knock-down),"[1]; Bendiocarb 0.032 mg/m^2 alone (Table 2), 0.25 h after contact",5%
same,Effect % (knock-down),"[1]; Bendiocarb 0.032 mg/m^2 alone (Table 2), 0.5 h after contact",5%
same,Effect % (knock-down),"[1]; Bendiocarb 0.032 mg/m^2 alone (Table 2), 1 h after contact",15%
same,Effect % (knock-down),"[1]; Bendiocarb 0.032 mg/m^2 alone (Table 2), 2 h after contact",10%
same,Effect % (knock-down),"[1]; Bendiocarb 0.032 mg/m^2 alone (Table 2), 3 h after contact",10%
same,Effect % (knock-down),"[1]; Bendiocarb 0.032 mg/m^2 alone (Table 2), 4 h after contact",15%
same,Effect % (knock-down),"[1]; Bendiocarb 0.032 mg/m^2 alone (Table 2), 24 h after contact",35%
same,Effect % (knock-down),"[1]; Bendiocarb 0.032 mg/m^2 alone (Table 3), 0.25 h after contact",10%
same,Effect % (knock-down),"[1]; Bendiocarb 0.032 mg/m^2 alone (Table 3), 0.5 h after contact",25%
same,Effect % (knock-down),"[1]; Bendiocarb 0.032 mg/m^2 alone (Table 3), 1 h after contact",25%
same,Effect % (knock-down),"[1]; Bendiocarb 0.032 mg/m^2 alone (Table 3), 2 h after contact",25%
same,Effect % (knock-down),"[1]; Bendiocarb 0.032 mg/m^2 alone (Table 3), 3 h after contact",35%
same,Effect % (knock-down),"[1]; Bendiocarb 0.032 mg/m^2 alone (Table 3), 4 h after contact",35%
same,Effect % (knock-down),"[1]; Bendiocarb 0.032 mg/m^2 alone (Table 3), 24 h after contact",80%
same,Effect % (knock-down),"[1]; Bendiocarb 0.16 mg/m^2 alone (Table 2), 0.25 h after contact",5%
same,Effect % (knock-down),"[1]; Bendiocarb 0.16 mg/m^2 alone (Table 2), 0.5 h after contact",90%
same,Effect % (knock-down),"[1]; Bendiocarb 0.16 mg/m^2 alone (Table 2), 1 h after contact",95%
same,Effect % (knock-down),"[1]; Bendiocarb 0.16 mg/m^2 alone (Table 2), 2 h after contact",100%
same,Effect % (knock-down),"[1]; Bendiocarb 0.16 mg/m^2 alone (Table 2), 3 h after contact",100%
same,Effect % (knock-down),"[1]; Bendiocarb 0.16 mg/m^2 alone (Table 2), 4 h after contact",90%
same,Effect % (knock-down),"[1]; Bendiocarb 0.16 mg/m^2 alone (Table 2), 24 h after contact",90%
same,Effect % (knock-down),"[1]; Bendiocarb 0.16 mg/m^2 alone (Table 3), 0.25 h after contact",15%
same,Effect % (knock-down),"[1]; Bendiocarb 0.16 mg/m^2 alone (Table 3), 0.5 h after contact",100%
same,Effect % (knock-down),"[1]; Bendiocarb 0.16 mg/m^2 alone (Table 3), 1 h after contact",100%
same,Effect % (knock-down),"[1]; Bendiocarb 0.16 mg/m^2 alone (Table 3), 2 h after contact",100%
same,Effect % (knock-down),"[1]; Bendiocarb 0.16 mg/m^2 alone (Table 3), 3 h after contact",100%
same,Effect % (knock-down),"[1]; Bendiocarb 0.16 mg/m^2 alone (Table 3), 4 h after contact",100%
same,Effect % (knock-down),"[1]; Bendiocarb 0.16 mg/m^2 alone (Table 3), 24 h after contact",100%
same,Effect % (knock-down),"[1]; Bendiocarb 0.8 mg/m^2 alone (Table 2), 0.25 h after contact",95%
same,Effect % (knock-down),"[1]; Bendiocarb 0.8 mg/m^2 alone (Table 2), 0.5 h after contact",100%
same,Effect % (knock-down),"[1]; Bendiocarb 0.8 mg/m^2 alone (Table 2), 1 h after contact",100%
same,Effect % (knock-down),"[1]; Bendiocarb 0.8 mg/m^2 alone (Table 2), 2 h after contact",100%
same,Effect % (knock-down),"[1]; Bendiocarb 0.8 mg/m^2 alone (Table 2), 3 h after contact",100%
same,Effect % (knock-down),"[1]; Bendiocarb 0.8 mg/m^2 alone (Table 2), 4 h after contact",100%
same,Effect % (knock-down),"[1]; Bendiocarb 0.8 mg/m^2 alone (Table 2), 24 h after contact",100%
same,efficiency on concrete,mosquitoes,not efficient
same,Effect % (knock-down),Aedes aegypti; [3],0%
same,Effect % (knock-down),Aedes aegypti; [4],0%
same,Effect % (knock-down),Aedes aegypti; [5],0%
same,Effect % (knock-down),Aedes aegypti; [6],0%
same,Effect % (knock-down),Aedes aegypti; [7],0%
same,Effect % (knock-down),Aedes aegypti; [8],5%
same,Effect % (knock-down),Aedes aegypti; [9],0%
same,Effect % (knock-down),Aedes aegypti; [10],0%
same,Effect % (knock-down),Aedes aegypti; [11],5%
same,Effect % (knock-down),Aedes aegypti; [12],5%
same,Effect % (knock-down),Aedes aegypti; [13],5%
same,Effect % (knock-down),Aedes aegypti; [14],10%
same,Effect % (knock-down),Aedes aegypti; [15],10%
same,Effect % (knock-down),Aedes aegypti; [16],5%
same,Effect % (knock-down),[2]; [3],0%
same,Effect % (knock-down),[2]; [4],5%
same,Effect % (knock-down),[2]; [5],5%
same,Effect % (knock-down),[2]; [6],5%
same,Effect % (knock-down),[2]; [7],10%
same,Effect % (knock-down),[2]; [8],10%
same,Effect % (knock-down),[2]; [9],40%
same,Effect % (knock-down),[2]; [10],0%
same,Effect % (knock-down),[2]; [11],80%
same,Effect % (knock-down),[2]; [12],80%
same,Effect % (knock-down),[2]; [13],45%
same,Effect % (knock-down),[2]; [14],50%
same,Effect % (knock-down),[2]; [15],20%
same,Effect % (knock-down),[2]; [16],90%
same,Effect % (knock-down),"[2]; Bendiocarb 0.8 mg/m^2 alone, 0.25 h after contact",100%
same,Effect % (knock-down),"[2]; Bendiocarb 0.8 mg/m^2 alone, 0.5 h after contact",100%
same,Effect % (knock-down),"[2]; Bendiocarb 0.8 mg/m^2 alone, 1 h after contact",100%
same,Effect % (knock-down),"[2]; Bendiocarb 0.8 mg/m^2 alone, 2 h after contact",100%
same,Effect % (knock-down),"[2]; Bendiocarb 0.8 mg/m^2 alone, 3 h after contact",100%
same,Effect % (knock-down),"[2]; Bendiocarb 0.8 mg/m^2 alone, 4 h after contact",95%
same,Effect % (knock-down),"[2]; Bendiocarb 0.8 mg/m^2 alone, 24 h after contact",100%
"CN/C(=N/CC1CCOC1)N[N+](=O)[O-] (stereo not drawn) [Dinotefuran, dinotefuran]",Effect % (knock-down),[1]; [17],10%
same,Effect % (knock-down),[1]; [18],5%
same,Effect % (knock-down),[1]; [19],5%
same,Effect % (knock-down),[1]; [20],10%
same,Effect % (knock-down),[1]; [21],20%
same,Effect % (knock-down),[1]; [22],30%
same,Effect % (knock-down),[1]; [23],35%
same,Effect % (knock-down),[1]; [24],15%
same,Effect % (knock-down),[1]; [25],5%
same,Effect % (knock-down),[1]; [26],15%
same,Effect % (knock-down),[1]; [27],40%
same,Effect % (knock-down),[1]; [28],35%
same,Effect % (knock-down),[1]; [29],65%
same,Effect % (knock-down),[1]; [30],65%
same,Effect % (knock-down),[2]; [17],0%
same,Effect % (knock-down),[2]; [18],0%
same,Effect % (knock-down),[2]; [19],5%
same,Effect % (knock-down),[2]; [20],0%
same,Effect % (knock-down),[2]; [21],10%
same,Effect % (knock-down),[2]; [22],15%
same,Effect % (knock-down),[2]; [23],35%
same,Effect % (knock-down),[2]; [24],15%
same,Effect % (knock-down),[2]; [25],10%
same,Effect % (knock-down),[2]; [26],10%
same,Effect % (knock-down),[2]; [27],15%
same,Effect % (knock-down),[2]; [28],30%
same,Effect % (knock-down),[2]; [29],40%
same,Effect % (knock-down),[2]; [30],55%
